Data from the NIST ThermoML archive (doi:10.1016/j.jct.2017.05.001).

Assay: wn = mass fraction of the nth substance listed
Conditions: Liquid; for mass density: Vibrating tube method

OCCNCCO [diethanolamine] + O
mass density [kg/m3]
Conditions | w1 = 0.0993 | w1 = 0.2 | w1 = 0.3002 | w1 = 0.3997
333.15 K, 130000 kPa | 1041.7 | 1050.9 | 1060.6 | 1070.8
333.15 K, 140000 kPa | 1045 | 1054.1 | 1063.7 | 1074
353.15 K, 100 kPa | 981.9 | 992.4 | 1003 | 1013.9
353.15 K, 500 kPa | 982 | 992.5 | 1003.1 | 1014
353.15 K, 1000 kPa | 982.2 | 992.7 | 1003.4 | 1014.2
353.15 K, 2000 kPa | 982.6 | 993.1 | 1003.7 | 1014.5
353.15 K, 5000 kPa | 983.9 | 994.4 | 1005 | 1015.8
353.15 K, 10000 kPa | 986.1 | 996.5 | 1007.1 | 1017.8
353.15 K, 15000 kPa | 988.2 | 998.6 | 1009.1 | 1019.8
353.15 K, 20000 kPa | 990.3 | 1000.6 | 1011.1 | 1021.8
353.15 K, 30000 kPa | 994.4 | 1004.7 | 1015.1 | 1025.7
353.15 K, 40000 kPa | 998.5 | 1008.5 | 1018.9 | 1029.4
353.15 K, 50000 kPa | 1002.4 | 1012.4 | 1022.6 | 1033
353.15 K, 60000 kPa | 1006.2 | 1016.3 | 1026.4 | 1036.7
353.15 K, 70000 kPa | 1010 | 1019.8 | 1029.9 | 1040.2
353.15 K, 80000 kPa | 1013.7 | 1023.4 | 1033.4 | 1043.6
353.15 K, 90000 kPa | 1017.3 | 1026.9 | 1036.8 | 1047
353.15 K, 100000 kPa | 1020.9 | 1030.4 | 1040.1 | 1050.4
353.15 K, 110000 kPa | 1024.4 | 1033.8 | 1043.5 | 1053.6
353.15 K, 120000 kPa | 1027.8 | 1037.1 | 1046.8 | 1056.8
353.15 K, 130000 kPa | 1031.1 | 1040.5 | 1050 | 1060
353.15 K, 140000 kPa | 1034.4 | 1043.6 | 1053.1 | 1063
373.15 K, 100 kPa | 968.1 | 978.3 | 988.7 | 999.2
373.15 K, 500 kPa | 968.3 | 978.6 | 988.9 | 999.4
373.15 K, 1000 kPa | 968.6 | 978.8 | 989.2 | 999.6
373.15 K, 2000 kPa | 969.1 | 979.3 | 989.6 | 1000.1
373.15 K, 5000 kPa | 970.4 | 980.6 | 990.9 | 1001.4
373.15 K, 10000 kPa | 972.7 | 982.8 | 993.2 | 1003.6
373.15 K, 15000 kPa | 974.9 | 985 | 995.3 | 1005.7
373.15 K, 20000 kPa | 977.1 | 987.2 | 997.4 | 1007.8
373.15 K, 30000 kPa | 981.4 | 991.5 | 1001.6 | 1012
373.15 K, 40000 kPa | 985.7 | 995.6 | 1005.7 | 1016
373.15 K, 50000 kPa | 989.7 | 999.5 | 1009.5 | 1019.8
373.15 K, 60000 kPa | 993.6 | 1003.5 | 1013.4 | 1023.6
373.15 K, 70000 kPa | 997.5 | 1007.3 | 1017.2 | 1027.3
373.15 K, 80000 kPa | 1001.4 | 1011.1 | 1020.9 | 1031
373.15 K, 90000 kPa | 1005.1 | 1014.7 | 1024.4 | 1034.5
373.15 K, 100000 kPa | 1008.8 | 1018.3 | 1028 | 1038
373.15 K, 110000 kPa | 1012.4 | 1021.9 | 1031.5 | 1041.4
373.15 K, 120000 kPa | 1015.9 | 1025.3 | 1034.9 | 1044.8
373.15 K, 130000 kPa | 1019.4 | 1028.7 | 1038.2 | 1048.1
373.15 K, 140000 kPa | 1022.7 | 1032 | 1041.5 | 1051.3
393.15 K, 100 kPa | 952.6 | 962.8 | 972.9 | 983.2
393.15 K, 500 kPa | 952.9 | 963.2 | 973.2 | 983.5
393.15 K, 1000 kPa | 953.1 | 963.3 | 973.4 | 983.7
393.15 K, 2000 kPa | 953.6 | 963.8 | 973.9 | 984.2
393.15 K, 5000 kPa | 955.1 | 965.2 | 975.3 | 985.6
393.15 K, 10000 kPa | 957.5 | 967.7 | 977.7 | 988
393.15 K, 15000 kPa | 959.9 | 969.9 | 980 | 990.3
393.15 K, 20000 kPa | 962.3 | 972.3 | 982.4 | 992.7
393.15 K, 30000 kPa | 966.8 | 976.8 | 986.9 | 997.1
393.15 K, 40000 kPa | 971.3 | 981.3 | 991.2 | 1001.4
393.15 K, 50000 kPa | 975.4 | 985.4 | 995.3 | 1005.4
393.15 K, 60000 kPa | 979.7 | 989.6 | 999.4 | 1009.6
393.15 K, 70000 kPa | 984 | 993.8 | 1003.6 | 1013.6
393.15 K, 80000 kPa | 987.9 | 997.6 | 1007.3 | 1017.3
393.15 K, 90000 kPa | 991.7 | 1001.5 | 1011.2 | 1021.2
393.15 K, 100000 kPa | 995.5 | 1005.2 | 1014.8 | 1024.8
393.15 K, 110000 kPa | 999.4 | 1008.9 | 1018.5 | 1028.5
393.15 K, 120000 kPa | 1003.1 | 1012.6 | 1022.1 | 1032
393.15 K, 130000 kPa | 1006.6 | 1016.1 | 1025.5 | 1035.4
393.15 K, 140000 kPa | 1010.1 | 1019.5 | 1029.1 | 1038.9

viscosity [mPa·s]
Conditions | w1 = 0.0993 | w1 = 0.1 | w1 = 0.2 | w1 = 0.3 | w1 = 0.3002 | w1 = 0.3997 | w1 = 0.4
353.15 K, 100 kPa, Concentric cylinders viscometry | – | 0.474 | 0.627 | 0.866 | – | – | 1.244
353.15 K, 100 kPa, Falling or rolling sphere viscometry | 0.4595 | – | 0.6088 | – | 0.8528 | 1.226 | –
353.15 K, 5000 kPa, Falling or rolling sphere viscometry | 0.4583 | – | 0.6083 | – | 0.8459 | 1.231 | –
353.15 K, 10000 kPa, Falling or rolling sphere viscometry | 0.4614 | – | 0.6136 | – | 0.8544 | 1.239 | –
353.15 K, 15000 kPa, Falling or rolling sphere viscometry | 0.4631 | – | 0.6167 | – | 0.8578 | 1.247 | –
353.15 K, 20000 kPa, Falling or rolling sphere viscometry | 0.464 | – | 0.6198 | – | 0.8642 | 1.255 | –
353.15 K, 25000 kPa, Falling or rolling sphere viscometry | 0.4671 | – | 0.6239 | – | 0.8704 | 1.264 | –
353.15 K, 30000 kPa, Falling or rolling sphere viscometry | 0.4692 | – | 0.6271 | – | 0.8768 | 1.275 | –
353.15 K, 40000 kPa, Falling or rolling sphere viscometry | 0.4733 | – | 0.6333 | – | 0.8887 | 1.292 | –
353.15 K, 60000 kPa, Falling or rolling sphere viscometry | 0.4815 | – | 0.646 | – | 0.9096 | 1.335 | –
353.15 K, 80000 kPa, Falling or rolling sphere viscometry | 0.4886 | – | 0.6588 | – | 0.9309 | 1.371 | –
353.15 K, 100000 kPa, Falling or rolling sphere viscometry | 0.4971 | – | 0.6731 | – | 0.9514 | 1.409 | –
373.15 K, 5000 kPa, Falling or rolling sphere viscometry | 0.3586 | – | 0.4622 | – | 0.6145 | 0.8545 | –
373.15 K, 10000 kPa, Falling or rolling sphere viscometry | 0.3611 | – | 0.4646 | – | 0.6194 | 0.863 | –
373.15 K, 15000 kPa, Falling or rolling sphere viscometry | 0.3635 | – | 0.467 | – | 0.6247 | 0.8727 | –
373.15 K, 20000 kPa, Falling or rolling sphere viscometry | 0.3652 | – | 0.4698 | – | 0.6304 | 0.8808 | –
373.15 K, 25000 kPa, Falling or rolling sphere viscometry | 0.3672 | – | 0.4729 | – | 0.6353 | 0.889 | –
373.15 K, 30000 kPa, Falling or rolling sphere viscometry | 0.3689 | – | 0.4761 | – | 0.6417 | 0.9 | –
373.15 K, 40000 kPa, Falling or rolling sphere viscometry | 0.3724 | – | 0.482 | – | 0.6515 | 0.9123 | –
373.15 K, 60000 kPa, Falling or rolling sphere viscometry | 0.3807 | – | 0.492 | – | 0.6676 | 0.9445 | –
373.15 K, 80000 kPa, Falling or rolling sphere viscometry | 0.3871 | – | 0.5046 | – | 0.6851 | 0.9763 | –
373.15 K, 100000 kPa, Falling or rolling sphere viscometry | 0.3943 | – | 0.5153 | – | 0.7019 | 1.003 | –
393.15 K, 5000 kPa, Falling or rolling sphere viscometry | 0.2926 | – | 0.3644 | – | 0.4675 | 0.6194 | –
393.15 K, 10000 kPa, Falling or rolling sphere viscometry | 0.2943 | – | 0.3676 | – | 0.4721 | 0.6265 | –
393.15 K, 15000 kPa, Falling or rolling sphere viscometry | 0.2964 | – | 0.37 | – | 0.4778 | 0.6495 | –
393.15 K, 20000 kPa, Falling or rolling sphere viscometry | 0.2989 | – | 0.3724 | – | 0.4809 | 0.6555 | –
393.15 K, 25000 kPa, Falling or rolling sphere viscometry | 0.301 | – | 0.3748 | – | 0.4848 | 0.6626 | –
393.15 K, 30000 kPa, Falling or rolling sphere viscometry | 0.3024 | – | 0.3769 | – | 0.4908 | 0.6682 | –
393.15 K, 40000 kPa, Falling or rolling sphere viscometry | 0.3047 | – | 0.3818 | – | 0.4967 | 0.681 | –
393.15 K, 60000 kPa, Falling or rolling sphere viscometry | 0.3113 | – | 0.3919 | – | 0.5122 | 0.7072 | –
393.15 K, 80000 kPa, Falling or rolling sphere viscometry | 0.3178 | – | 0.4017 | – | 0.527 | 0.7305 | –
393.15 K, 100000 kPa, Falling or rolling sphere viscometry | 0.3233 | – | 0.4114 | – | 0.5417 | 0.7538 | –
